For one data set, the system named is NUGC-3 cells. The data set can be described thus: Anti-proliferation effect on NUGC-3 cells (Cell Counting Kit-8). In kind it is cell-based. As to conditions: Homo sapiens, NUGC-3, 120 h; 5 days of treatment. As to the method:
Cell line NUGC-3 (JCRB, JCRB0822) was cultured in RPMI 1640 (Invitrogen, 11875-085) medium supplemented with 10% (v/v) fetal bovine serum (BI, 04-002-1A), according to the standard instructions of the American Type Culture Collection. The cell line was authenticated by short tandem repeat profiling.
In the proliferation assay, 1000 NUGC-3 cells were seeded in a 96-well flat clear bottom, TC-treated plate (Corning, 3903) in 200 μL of medium per well, and allowed to recover overnight in culture medium. Compounds were added with increasing concentration, with DMSO treatment serving as a […] control. After 5 days of treatment, the plate was equilibrated to room temperature for 30 minutes, and the number of living cells was measured by the addition of the Cell Counting Kit-8 reagent (MCE, HY-K0301). Absorbance was measured on an Enspire (Perkin elme). The relative viability of each group was presented as the percentage change relative to the […] control group and then fit to a four-parameter logit non-linear curve using the program XLFit (IDBS)
In general terms: Tetrazolium dyes change colour on reduction, which living cells bring about.

The next data set relates to CYP3A4/5. The data set can be described thus: Multi-concentration inhibitory activity curve of CYP3A4/5 enzymes. In kind it is in vitro ADME. As to conditions: pH 7.4, probe testosterone; human liver microsomes; substrate testosterone; read-out: CYP3A4/5 IC50 (μM) (Testosterone). As to the method: The buffer was filtered through a 0.45 μm filter.
Liver microsome working solution (final system concentration of 0.5 mg/mL) was prepared. […] The above stock solution was diluted with acetonitrile (4-fold dilution, 6 non-zero concentrations).
The half-maximal inhibitory concentration (IC50) was calculated using Graph Pad Prism.
(In general: Microsomes from liver hold many membrane-bound enzymes, among them those of drug oxidation.)

Data set [1] in a line: Metabolic stability test in hepatocytes. Conditions: for hepatocyte CLint at 1 μM: read-out: In vitro Clint (μL/min/10^6 cells); for half-life at 1 μM: read-out: In vitro t1/2. It counts as in vitro ADME. As to the method:
The test compound and the control drug verapamil powder were prepared into a high concentration stock solution using DMSO, and diluted to a 100 μM working solution with 50% acetonitrile/water before use, with final concentrations of 1 μM for the test compound and verapamil.
• 1) 49.5 mL of Williams' Medium E and 0.5 mL GlutaMAX were mixed as the incubation solution. The hepatocyte recovery solution and the incubation solution were pre-warmed in a 37° C. water bath for at least 15 minutes prior to use. • 2) A tube of cryopreserved hepatocytes was taken, ensuring that the hepatocytes were still in a cryogenic frozen state prior to resuscitation. The hepatocytes were quickly placed in a 37° C. water bath and gently shaken until all ice crystals were completely dispersed, sprayed with 70% ethanol and transferred to a biosafety cabinet. • 3) The contents of the hepatocyte tube were poured into a centrifuge tube containing 50 mL of recovery medium, which were centrifuged at 100 g for 10 minutes. After centrifugation, the recovery medium was aspirated, and sufficient incubation medium was added to obtain a cell suspension having a cell density of approximately 1.5×10^6 cells/mL. • 4) Cellometer Vision was used to count hepatocytes and determine the density of viable cells. The survival rate of hepatocytes must be greater than 75%. The hepatocyte suspension was diluted with incubation medium to a viable cell density of 0.5×10^6 cells/mL. • 5) A portion of hepatocyte suspension with a density of 0.5×10^6 cells/mL was boiled in water for 5 minutes to inactivate as a negative control. After cells were inactivated, substrate conversion mediated by non-cellular enzymes could be easily investigated.
• 1) 198 μL of the suspension of live or inactivated cells was transferred to a 96-well deep-well plate, which was then placed on a vortexer and preheated in an incubator for 10 minutes. Live cells were incubated in duplicate, while inactivated cells were incubated in single. • 2) 2 μL of 100 μM test compound or verapamil was added to each well for the reaction initiation, and the deep-well plate was placed back on the incubator vortexer. • 3) 25 μL of the suspension were taken from the incubated samples at 0, 15, 30, 60, 90, and 120 minutes, respectively, and added to 150 μL of acetonitrile containing internal standards (200 nM alprazolam, 200 nM labetalol, 2 μM ketoprofen, and 200 nM caffeine) to terminate the reaction. The mixture was vortexed for 10 minutes and centrifuged at 3220 g and 4° C. for 30 minutes. After centrifugation was completed, 100 μL of the supernatant and 100 μL of ultra-pure water were mixed well for UPLC-MS/MS analysis detection.
All data calculations were performed using Microsoft Excel software. Peak areas were detected by extracting the ion chromatogram. The in vitro half-life (t1/2) of the parent drug was detected by linear fitting of the natural logarithm of the percentage of parent drug […] with time.
The in vitro half-life (t1/2) was calculated by the slope: […]
In vitro intrinsic clearance (unit μL/min/10^6 cells) was calculated using the following formula:
[formula] • V=incubation volume per well (0.2 mL); • N=number of cells per well (0.1×10^6 cells)

The nature of data set [2]: Metabolic stability in liver microsomes. In kind it is in vitro ADME. As to conditions: for microsomal CLint at 1 μM: read-out: In vitro Clint (μL/min/mg protein); for half-life at 1 μM: read-out: In vitro t1/2. On the procedure: The test compound and the positive control compound (dextromethorphan as a control compound) were dissolved respectively in DMSO to prepare a stock solution with a concentration of 10 mM, and the above stock solution was diluted into 200 μM working solution with DMSO. 8.709 g of potassium hydrogen phosphate (K2HPO4) was dissolved in 950 mL of water, and the pH value of the solution was adjusted to 7.4 with hydrochloric acid, and then the volume was adjusted to 1000 mL with water. After filtration using a 0.22 μm filter membrane, the mixture was stored in a 4° C. refrigerator for later use. After liver microsomes of various species (protein concentration of 20 mg/mL) were thawed in a 37° C. water bath, the liver microsomes were diluted with a phosphate buffer respectively to obtain a liver microsome working solution with protein concentration of 0.629 mg/mL. 5 mM NADPH solution was prepared using the above phosphate buffer for later use. 1 mg/mL stock solution of terfenadine/tolbutamide was prepared with DMSO and then diluted with a 50% methanol/50% acetonitrile mixed solution to a reaction stop solution containing 5/10 ng/mL (terfenadine/tolbutamide) internal standard.
238.5 μL of liver microsome working solutions of various species were added to a 1.1 mL microtube, and 1.5 μL of the test compound working solution or the positive control compound (dextromethorphan) working solution (200 μM) was added respectively, mixed well, and pre-incubated in a 37° C. water bath for 5 minutes. 60 μL of NADPH solution was added to start the reaction, and after mixing well, at the time points of 0, 5, 15, 30, and 60 minutes after the reaction, 30 μL of the reaction mixture was respectively pipetted and added to 300 μL of the reaction stop solution. Samples from all time points were vortexed vigorously for 1 minute and centrifuged at 4000 rpm for 15 minutes at 4° C. 100 μL of the supernatant was added to 100 μL of pure water and mixed well for LC-MS/MS analysis.
The slope (ke) was determined by plotting the natural logarithm of the percentage of compound remaining against time, and the Tin and intrinsic clearance (CLint) were calculated based on the first-order kinetic formula: […]
The compound remaining rate is calculated as follows:
Intrinsic clearance CLint (μL/min/mg protein)=0.693*1000/T1/2/protein concentration (0.5 mg protein/mL)

The mark [3] stands for this setting: cryopreserved hepatocytes, Human hepatocytes.
Setting [4] is: cryopreserved hepatocytes, Mouse hepatocytes.
The mark [5] stands for this setting: cryopreserved hepatocytes, Rat hepatocytes.
[6] abbreviates: ICR/CD-1, pH 7.4, Mouse liver microsomes.
Where [7] appears, read: Sprague Dawley, pH 7.4, Rat liver microsomes.
[8] abbreviates: cryopreserved hepatocytes in suspension, Human hepatocytes.
The mark [9] stands for this setting: cryopreserved hepatocytes in suspension, Mouse hepatocytes.
Where [10] appears, read: cryopreserved hepatocytes in suspension, Rat hepatocytes.

Where two headings read alike, the source gives them in different places.

In turn, `[2H]C([2H])([2H])Oc1nc(C(=O)NS(=O)(=O)C2CC2)ccc1NCC#Cc1cc2c(N[C@@H]3CCN(C)C[C@@H]3F)cccn2c1CC(F)(F)F` [Cpd-4, N-(Cyclopropylsulfonyl)-5-((3-(8-(((3S,4R)-3-fluoro-1-methylpiperidin-4-yl)amino)-3-(2,2,2-trifluoroethyl)indolizin-2-yl)prop-2-yn-1-yl)amino)-6-(methoxy-d3)picolinamide] displayed an IC50 in the data set with NUGC-3 cells of 97 nM.

`[2H]C([2H])([2H])Oc1nc(C(=O)NS(=O)(=O)CC2CC2)ccc1NCC#Cc1cc2c(N[C@@H]3CCN(C)C[C@@H]3F)cccn2c1CC(F)(F)F` [Cpd-5, N-((Cyclopropylmethyl)sulfonyl)-5-((3-(8-(((3S,4R)-3-fluoro-1-methylpiperidin-4-yl)amino)-3-(2,2,2-trifluoroethyl)indolizin-2-yl)prop-2-yn-1-yl)amino)-6-(methoxy-d3)picolinamide] returned an IC50 in the data set with NUGC-3 cells of 81 nM.

For the compound `[2H]C([2H])([2H])Oc1nc(C(=O)NS(=O)(=O)CC(F)(F)F)ccc1NCC#Cc1cc2c(N[C@@H]3CCN(C)C[C@@H]3F)cccn2c1CC(F)(F)F` [Cpd-6, 5-((3-(8-(((3S,4R)-3-Fluoro-1-methylpiperidin-4-yl)amino)-3-(2,2,2-trifluoroethyl)indolizin-2-yl)prop-2-yn-1-yl)amino)-6-(methoxy-d3)-N-((2,2,2-trifluoroethyl)sulfonyl)picolinamide], the IC50 in the data set with NUGC-3 cells was 190 nM.

Regarding `COc1nc(C(=O)NS(=O)(=O)C2CC2)ccc1NCC#Cc1cc2c(N[C@@H]3CCN(C)C[C@@H]3F)cccn2c1CC(F)(F)F` [Cpd-7, N-(Cyclopropylsulfonyl)-5-((3-(8-(((3S,4R)-3-fluoro-1-methylpiperidin-4-yl)amino)-3-(2,2,2-trifluoroethyl)indolizin-2-yl)prop-2-yn-1-yl)amino)-6-methoxypicolinamide], in the data set with NUGC-3 cells, the IC50 is 70 nM.

`[2H]C([2H])([2H])Oc1nc(C(=O)NS(C)(=O)=O)ccc1NCC#Cc1cc2c(N[C@H]3CCN(C)C[C@H]3F)cccn2c1CC(F)(F)F` [Cpd-8, 5-((3-(8-(((3R,4S)-3-Fluoro-1-methylpiperidin-4-yl)amino)-3-(2,2,2-trifluoroethyl)indolizin-2-yl)prop-2-yn-1-yl)amino)-6-(methoxy-d3)-N-(methylsulfonyl)picolinamide]: the IC50 with NUGC-3 cells is 340 nM.

`[2H]C([2H])([2H])Oc1nc(C(=O)NS(C)(=O)=O)ccc1NCC#Cc1cc2c(N[C@H]3CCN(C)C[C@@H]3F)cccn2c1CC(F)(F)F` [Cpd-9, 5-((3-(8-(((3S,4S)-3-Fluoro-1-methylpiperidin-4-yl)amino)-3-(2,2,2-trifluoroethyl)indolizin-2-yl)prop-2-yn-1-yl)amino)-6-(methoxy-d3)-N-(methylsulfonyl)picolinamide] came in with an IC50 in the data set on NUGC-3 cells of 550 nM.

As for `[2H]C([2H])([2H])Oc1nc(C(=O)NS(C)(=O)=O)ccc1NCC#Cc1cc2c(N[C@@H]3CCN(C)C[C@H]3F)cccn2c1CC(F)(F)F` [Cpd-10, 5-((3-(8-(((3R,4R)-3-Fluoro-1-methylpiperidin-4-yl)amino)-3-(2,2,2-trifluoroethyl)indolizin-2-yl)prop-2-yn-1-yl)amino)-6-(methoxy-d3)-N-(methylsulfonyl)picolinamide], the IC50 in the data set on NUGC-3 cells is 900 nM.

Take `COc1cc(S(C)(=O)=O)ccc1NCC#Cc1nc2c(N[C@@H]3CCN(C)C[C@@H]3F)cccn2c1CC(F)(F)F` [Cpd-B, reference compound]: the IC50 at 10 min with CYP3A4/5 is 3.2 µM. Also, the hepatocyte CLint at 1 μM is 16.8 µL/min/1e6 cells in data set [1] (setting [3]), 198 µL/min/1e6 cells in data set [1] (setting [4]) and 63.8 µL/min/1e6 cells in data set [1] (setting [5]). The values for the half-life at 1 μM in data set [1] (setting [3]), in data set [1] (setting [4]) and in data set [1] (setting [5]) were 82 min, 7 min and 22 min, respectively.

Regarding `CNC(=O)c1ccc(NCC#Cc2cc3c(N[C@@H]4CCN(C)C[C@@H]4F)cccn3c2CC(F)(F)F)c(OC)c1` [Cpd-C, 4-((3-(8-(((3S,4R)-3-Fluoro-1-methylpiperidin-4-yl)amino)-3-(2,2,2-trifluoroethyl)indolizin-2-yl)prop-2-yn-1-yl)amino)-3-methoxy-N-methylbenzamide, reference compound], the microsomal CLint at 1 μM in data set [2] (setting [6]) stood at 83.9 µL/min/mg; in data set [2] (setting [7]) it was 61.5 µL/min/mg; in data set [2] (pH 7.4, Human liver microsomes), 28.3 µL/min/mg. Also, the half-life at 1 μM amounted to 17 min in data set [2] (setting [6]); 23 min in data set [2] (setting [7]); 49 min in data set [2] (pH 7.4, Human liver microsomes); 75 min in data set [1] (setting [8]); 44 min in data set [1] (setting [9]); 88 min in data set [1] (setting [10]). Moreover, the hepatocyte CLint at 1 μM turned out to be 18.4 µL/min/1e6 cells in data set [1] (setting [8]), 31.8 µL/min/1e6 cells in data set [1] (setting [9]) and 15.7 µL/min/1e6 cells in data set [1] (setting [10]).

The values above are taken from patent US20250304578A1, “NITROGEN-CONTAINING FUSED HETEROCYCLIC COMPOUNDS OF N-SULFONAMIDE AND USE THEREOF” (NUTSHELL THERAPEUTICS (SHANGHAI) CO., LTD., priority 2023, published 2025).
